Experiments:
A549-ON cells = assay: Annexin V/PI apoptosis flow cytometry in A549-ON cells; type: cell-based, human; settings: 30 μM, early and late apoptosis, flow cytometry
Method: At the end of treatment, apoptosis was measured by Annexin V-PI staining using flow cytometry analysis. The population of Annexin V+/PI− cells represents cells undergoing early apoptosis (low right), whereas the fraction of Annexin V+/PI+ cell are those undergoing late apoptosis (upper right). The representative flow data were shown from one of three separate experiments with similar findings.
The bar represents the mean±S.E.M. ***p<0.001 indicates significant difference between untreated and SP101 or Gefitinib treated samples.
We compared the apoptosis levels of SP101 and Gefitinib in cancer stem-like A549-ON cells by Annexin V and PI staining. Please refer to FIG. 19. […] Please refer to FIG. 20. The average of total apoptosis follows SP101 and Gefitinib in the A549-ON cells around 69.29% and 7.59%, respectively.

H1975 xenograft tumors = assay: Xenografted human NSCLC (H1975) tumors in nude mice; type: in vivo; settings: 30 mg/kg once per four days, during the treatment period
Text: The results were obtained from twelve mice and the bar represents the mean±S.E.M.**p<0.01, indicating significant difference between control and SP101 treatment group mice. ###p<0.001 indicates significant differences between SP101 and Gefitinib-treated mice.
The tumor weight was means±*p<0.05 indicating significant differences between control and SP101 treatment group mice. #p<0.05 indicates significant differences between SP101 and Gefitinib-treated mice.
NSCLC tumors in nude mice were established. Seven-week-old nude mice were subcutaneously injected with 3×10^6 H1975 cells. Please refer to FIGS. 7 and 8. After 7 to 10 days inoculation, the nude mice were treated with vehicle or 30 mg/kg SP101 or 30 mg/kg Gefitinib once per four days and tumor sizes in the nude mice were measured every four days. The nude mice were sacrificed after treatment for 16 days; the tumors were harvested to measure tumor volume/weight and further analyze tumor tissues. […] Please refer to FIG. 9.

SMILES: COc1cc2ncnc(Nc3ccc(F)c(Cl)c3)c2cc1OCCCN1CCOCC1 [Gefitinib, reference compound]
- average of total apoptosis (A549-ON cells): ~7.59%
- body weight of the nude mice (H1975 xenograft tumors): did not alter
